The data set can be described thus: gradient 5% acetonitrile 3 min, to 50% in 2 min, to 85% in 15 min, held 3 min, 100 µL/min. Particulars: column: Zorbax Extend-C18 2.1 x 50 mm; eluents: water / acetonitrile, 0.1% formic acid. An outline of the steps: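 Pure standards were analyzed in mixtures of ~100 molecules using HPLC coupled to a quadrupole time-of-flight mass spectrometer, in both positive and negative ionization mode. Separation used a Zorbax Extend-C18 column (2.1 × 50 mm, 1.8 μm) at 100 μL/min, with water and acetonitrile each containing 0.1% formic acid. Dead and dwell volumes were 40 μL and 900 μL, and data were collected over 3 months. Retention time was read from computationally picked adduct peaks, each inspected manually.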
As to `COCCCNC(=O)CN1c2ccc(F)cc2-c2ccccc2S1(=O)=O`, the RP-LC retention time stood at 756 s.

The molecule `Cc1nc(N2CCCC2)c2c(C(=O)Nc3cccc(F)c3)c(C)oc2n1` showed an RP-LC retention time of 784 s.

For the molecule `CCCn1nc(CNC(=O)c2cnccn2)c2ccccc21`, the RP-LC retention time was determined as 765 s.

With `O=C(c1ccc(-n2cccn2)nc1)N1CCCCC1`, the RP-LC retention time is 732 s.

For `COc1ccc(NC(=O)N2CC(N(C3CCOCC3)S(C)(=O)=O)C2)c(C)c1`, the RP-LC retention time was found to be 664 s.

In turn, `O=c1c2sccc2n(Cc2nc(-c3ccc(Cl)c(F)c3)no2)c(=O)n1CCc1ccccc1` gave an RP-LC retention time of 1280 s.

`CCCN1C(=O)CN(S(C)(=O)=O)CC1(C)C(=O)NCc1ccc(Cl)cc1` (stereo not given) showed an RP-LC retention time of 758 s.

Turning to `CC1=C(c2ccc(C)cc2)S(=O)(=O)N=C1N1CCCN(C(=O)C2CCC2)CC1`, the RP-LC retention time was found to be 818 s.

In the case of `CCc1cc(=O)n(Cc2cccc(F)c2)c(N2CCOCC2)n1`, the RP-LC retention time worked out at 909 s.

Turning to `Cc1c(C(=O)N2CCCC2)cc(-c2ccc(F)cc2)n1C`, the RP-LC retention time was determined as 889 s.

As for `CCOC(=O)CCNC(=O)N1CCN(Cc2nc3cccnc3n2-c2ccc(F)cc2)CC1`, the RP-LC retention time is 607 s.

`Cc1ccc(NC(=O)Cc2cn3cc(F)ccc3n2)c(C)c1` showed an RP-LC retention time of 610 s.

With `O=C(NCc1ccccc1)C1CCN(c2cnc3nccnc3c2)CC1`, the RP-LC retention time was determined as 662 s.

As for `O=C(NCC1CCN(Cc2cccs2)CC1)C1(c2ccccc2)CCOCC1`, the RP-LC retention time stood at 578 s.

Molecule `O=C(NCc1ccccc1F)C1=C2CCCN2c2ccccc2S1(=O)=O` gave an RP-LC retention time of 818 s.

`Cc1nn(-c2ccccc2)c(C)c1/C=N/N1CCN(Cc2ccccc2)CC1` showed an RP-LC retention time of 687 s.

`CCC1CCCCN1CCNC(=O)Cn1c(=O)n(-c2ccccc2)c2ncccc21` (stereo not given) gave an RP-LC retention time of 597 s.

`O=S(=O)(NC1CCCCCC1)c1ccc(-c2nnc(C3CC3)o2)o1` displayed an RP-LC retention time of 920 s.

In turn, `Cc1cc(=O)n(CC(=O)Nc2ccccc2)c(-c2ccccc2)n1` gave an RP-LC retention time of 964 s.

Consider `Cn1cc(CN2CCC(C(=O)NCc3ccccc3F)CC2)c2cc(Cl)ccc21`, for which the RP-LC retention time was 705 s.

The molecule `CNC(=O)c1sc2nc(-c3cccc(OC)c3)c(NC(C)(C)C)n2c1C` registered an RP-LC retention time of 780 s.

`CC(C)NC(=O)c1ccc2nc(-c3ccccc3)cn2c1`: the RP-LC retention time was determined as 604 s.

The molecule `Cc1ccc(N2CCC(NC(=O)CC3CCCC3)C2=O)cc1` (stereo not given) came in with an RP-LC retention time of 839 s.

Turning to `Cn1c(-c2cccc(C(=O)NCc3ccc(F)cc3F)c2)nc2cccnc21`, the RP-LC retention time amounted to 743 s.

As for `CCn1ccc2ccn(CC(=O)NCc3ccc4c(c3)OCO4)c(=O)c21`, the RP-LC retention time came out at 726 s.

On to `COc1ccccc1-n1ccn(Cc2nc(-c3ccccc3C)no2)c(=O)c1=O`, for which the RP-LC retention time was found to be 850 s.

Consider `COc1c(C(=O)NC(C)C)sc2ccc(F)cc12`, for which the RP-LC retention time was found to be 952 s.

With `CC(C)CN1CCn2cc(C(=O)NCC3CCCCC3)nc2C1`, the RP-LC retention time is 634 s.

Take `COCC(=O)NC(Cc1ccccc1)c1nc2ccccc2n1Cc1ccccc1F` (stereo not given): the RP-LC retention time was 769 s.

The molecule `Cc1cccc(CNC(=O)c2nnc(-c3ccc(S(=O)(=O)N4CCC(C)CC4)cc3)o2)c1` returned an RP-LC retention time of 1100 s.

As for `Cc1nc2c(sc3nc(-c4ccccc4)ccc32)c(=O)n1CC(=O)Nc1ccc2c(c1)OCO2`, the RP-LC retention time was 985 s.

As to `CCn1cc(-c2nc(C(=O)Nc3cccc(C)c3)cs2)c2cccnc21`, the RP-LC retention time amounted to 1130 s.

For `Cc1cc(-c2nnc(C3CCC3)o2)c(C)n1CC(=O)NCc1cc(F)cc(F)c1`, the RP-LC retention time worked out at 864 s.

In turn, `COc1ccc(OCc2noc(CNC(=O)NCc3ccc(F)cc3)n2)cc1` registered an RP-LC retention time of 770 s.

In turn, `CCC(C)NC(=O)Cn1ccc2ccc(-c3nnc(C)o3)cc21` (stereo not given) returned an RP-LC retention time of 713 s.

In turn, `CC1CCN(c2nc3c(c(=O)n(C)c(=O)n3C)n2Cc2ccccc2F)CC1` came in with an RP-LC retention time of 1090 s.

As for `CCn1nnc2c(N3CCc4cc(OC)c(OC)cc4C3C)ncnc21` (stereo not given), the RP-LC retention time is 784 s.

For the molecule `CC(C)c1ccc(NC(=O)C2CCN(S(=O)(=O)c3cn(C(C)C)cn3)CC2)cc1`, the RP-LC retention time was determined as 900 s.

In the case of `O=S(=O)(c1ccc(-c2csc(Nc3cccc4ccccc34)n2)cc1)N1CCCCC1`, the RP-LC retention time is 1280 s.

`Cc1csc(-c2ccc(N3CCN(C(=O)Cc4cccc(Cl)c4)CC3)nc2)n1`: the RP-LC retention time is 896 s.

Consider `O=C(CSc1nnc2c(=O)n(-c3ccc(F)cc3)ccn12)c1ccc(F)cc1`, for which the RP-LC retention time is 802 s.

With `O=C(c1ccc2c(c1)OCO2)N1CCCN(C(=O)C2CC2)c2ccccc21`, the RP-LC retention time worked out at 715 s.

As to `COc1ccc(N2CC(NC(=O)NCCC3=CCCCC3)CC2=O)cc1` (stereo not given), the RP-LC retention time turned out to be 731 s.

Take `O=C(O)c1cc(-c2ccc(F)cc2)nc2ccccc12`: the RP-LC retention time was found to be 884 s.

Molecule `O=C(Nc1nc2ccccc2[nH]1)c1cccc(Cl)c1` had an RP-LC retention time of 703 s.

Molecule `CCN(CC)C(=O)c1cnc2snc(C)c2c1N1CCC(C(=O)Nc2ccc(OC)c(Cl)c2)CC1` came in with an RP-LC retention time of 900 s.

On to `O=C1N=C2C(=Nc3ccccc32)C(=O)N1CCN1CCN(c2ccccc2Cl)CC1`, for which the RP-LC retention time stood at 743 s.

`Cc1ccc(-c2noc(-c3ccccc3S(=O)(=O)NCCN3CCC(C)CC3)n2)cc1` displayed an RP-LC retention time of 771 s.

In the case of `CCCNC(=O)NC1CCN(c2nc3ccccc3n(CC)c2=O)CC1`, the RP-LC retention time was determined as 770 s.

With `CCc1ccc(S(=O)(=O)N2CCC3(CC2)NCCN=C3NCc2cc(F)cc(F)c2)cc1`, the RP-LC retention time came to 798 s.

Regarding `Cn1c(C(=O)N2CCN(c3ccccn3)CC2)c(N2CCCC2=O)c2cc(F)ccc21`, the RP-LC retention time stood at 635 s.

On to `CC(=O)c1ccc(S(=O)(=O)N2CCCC(C)(C(=O)NCc3ccc(F)cc3)C2)cc1` (stereo not given), for which the RP-LC retention time amounted to 876 s.

`CN1CCC(OC2CCN(C(=O)c3ccc(Cl)s3)CC2)CC1` showed an RP-LC retention time of 609 s.

Take `CCCN(C)c1nccn2c(=O)n(CC(=O)Nc3ccc(Cl)cc3F)nc12`: the RP-LC retention time came to 735 s.

As to `CCc1nnc(-c2cc(NS(=O)(=O)CC)c(C)s2)o1`, the RP-LC retention time was determined as 810 s.

For `Cc1ccc(-c2nnc(-c3cccc(S(=O)(=O)NCc4cccnc4)c3)o2)cc1`, the RP-LC retention time came out at 696 s.

`Cc1ccccc1CNC(=O)CCC1CCN(c2cc(NC3CC3)ncn2)CC1` showed an RP-LC retention time of 585 s.

For `Cc1ccc(S(=O)(=O)N2CCC(n3cnnc3-c3ccccc3)CC2)c(C)c1`, the RP-LC retention time amounted to 844 s.

For the molecule `CC(=O)Nc1ccc2c(c1)CN(C(=O)Cc1ccccc1F)C(C(=O)N(C)C)C2` (stereo not given), the RP-LC retention time came to 1080 s.

Molecule `CN(Cc1ccc(F)cc1Cl)C1CCc2nnc(C3CCOCC3)n2CC1` (stereo not given) showed an RP-LC retention time of 561 s.

In the case of `COC(=O)CNC(=O)C1CN(C(=O)c2ccccc2)CC12CCCCC2` (stereo not given), the RP-LC retention time was found to be 731 s.

Molecule `Cc1c(C(=O)NCC(C)C)cnn1-c1cc(-c2nc(C(C)(C)C)no2)ccn1` came in with an RP-LC retention time of 1150 s.

For the molecule `N#Cc1ccc(-c2nc(-c3ccc(S(=O)(=O)N4CCC(C(=O)N5CCCC5)CC4)cc3)no2)cc1`, the RP-LC retention time amounted to 947 s.

In the case of `CCOC(=O)c1ccc(NC(=O)c2ccc(-n3nncc3C)cc2)cc1`, the RP-LC retention time stood at 757 s.

Molecule `Cc1oncc1CN1CCN(C(=O)c2c(F)cccc2F)CC1` yielded an RP-LC retention time of 562 s.

Turning to `N#Cc1cccc(C(=O)NC2CCN(C(=O)C3CC3)C2)c1` (stereo not given), the RP-LC retention time stood at 651 s.

Regarding `CSc1nc2ccc3nc(NC(=O)c4c(F)cccc4F)sc3c2s1`, the RP-LC retention time was determined as 990 s.

`Cc1oc(C2CCN(C(=O)Nc3ccc(Cl)cc3F)CC2)nc1C(=O)N(C)C` yielded an RP-LC retention time of 714 s.

Turning to `O=C(C1CCN(S(=O)(=O)c2cc(-c3noc(C4CCC4)n3)cs2)CC1)N1CCCCC1`, the RP-LC retention time is 971 s.

As to `O=C(Nc1ccc(OCc2nnc(-c3ccc(F)cc3)o2)cc1)c1cccnc1`, the RP-LC retention time came out at 720 s.

In turn, `CCn1c(CC2CCN(C(=O)c3nccc4ccccc34)C2)nc2cccnc21` (stereo not given) gave an RP-LC retention time of 587 s.

As for `CCNC(=O)N1CCCC(c2cccc(C(=O)NCc3ccc(C)c(C)c3)c2)C1` (stereo not given), the RP-LC retention time amounted to 866 s.

`Cc1ccc(S(=O)(=O)Cc2ccc(C(=O)N3CCN(c4ccccn4)CC3)o2)cc1` yielded an RP-LC retention time of 606 s.

Take `Cn1cnc(S(=O)(=O)N2CCC(C(=O)N3CCN(c4cccc(Cl)c4)CC3)CC2)c1`: the RP-LC retention time came to 780 s.

Molecule `CC1CCc2c(sc(NC(=O)Cc3ccc4c(c3)OCO4)c2C#N)C1` (stereo not given) had an RP-LC retention time of 1070 s.

`CCC1CCCCN1C(=O)c1cnc2nc(C)ccc2c1Nc1cccc(SC)c1` (stereo not given) registered an RP-LC retention time of 713 s.

Regarding `CCOCN(C(=O)Cn1c(C(C)O)nc2ccccc21)c1c(C)cccc1CC` (stereo not given), the RP-LC retention time was 748 s.

With `Cc1cnc(C2CCC2)n1CC1CCN(S(=O)(=O)Cc2cccc(F)c2)C1` (stereo not given), the RP-LC retention time is 683 s.

Consider `CC1(C(=O)NC2CCCC2)Cn2cnc(C(=O)NCc3cccc(Cl)c3)c2C(=O)N1C1CC1` (stereo not given), for which the RP-LC retention time came to 955 s.

On to `O=C(Cn1c(=O)n(Cc2ccc3c(c2)OCO3)c(=O)c2ncccc21)N1CCCc2ccccc21`, for which the RP-LC retention time was determined as 826 s.

(Values after the METLIN SMRT retention time set (Domingo-Almenara et al. 2019).)
